# Tested on: 496974-208-R-J2-PDC complex spheroids, growth % test/control
# Assay: Anticancer human tumor 496974-208-R-J2-PDC patient-derived pancreatic carcinoma cell line growth inhibition [CLK]
# Conditions: for IC50: curve of first compound; for viability, T/C: stronger effect = lower value
# Outline: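 Multi-cell-type spheroids combined patient-derived tumor cells with HUVEC endothelial cells and human mesenchymal stem cells. Paired agents were dosed in half-log steps down from about clinical Cmax, or from 10 microM where Cmax was unknown.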
# [1] = second compound 0.0316 µM, first compound 0.0316 µM
# [2] = second compound 0.0316 µM, first compound 0.1 µM
# [3] = second compound 0.0316 µM, first compound 0.316 µM
# [4] = second compound 0.0316 µM, first compound 1 µM
# [5] = second compound 0.1 µM, first compound 0.0316 µM
# [6] = second compound 0.1 µM, first compound 0.1 µM
# [7] = second compound 0.1 µM, first compound 0.316 µM
# [8] = second compound 0.1 µM, first compound 1 µM
# [9] = second compound 0.316 µM, first compound 0.0316 µM
# [10] = second compound 0.316 µM, first compound 0.1 µM
# [11] = second compound 0.316 µM, first compound 0.316 µM
# [12] = second compound 0.316 µM, first compound 1 µM
# [13] = second compound 1 µM, first compound 0.0316 µM
# [14] = second compound 1 µM, first compound 0.1 µM
# [15] = second compound 1 µM, first compound 0.316 µM
# [16] = second compound 1 µM, first compound 1 µM
# [17] = second compound 3.16 µM, first compound 0.0316 µM
# [18] = second compound 3.16 µM, first compound 0.1 µM
# [19] = second compound 3.16 µM, first compound 0.316 µM
# [20] = second compound 3.16 µM, first compound 1 µM
# [21] = second compound 10 µM, first compound 0.0316 µM
# [22] = second compound 10 µM, first compound 0.1 µM
# [23] = second compound 10 µM, first compound 0.316 µM
# [24] = second compound 10 µM, first compound 1 µM
# 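Further: spheroids exposed to the drugs for 7 days before readout.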
# 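Wherever viability, T/C is given: 100% = DMSO vehicle control wells.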
structure (smiles),measurement,setting,value
COc1ccc([C@@H](O)c2cc(-c3ncnc4cc(N5CCOCC5)ccc34)c(F)cc2Cl)nn1 + CN1CCN(c2cc(C(=O)Nc3cc4cc(-c5cnn(C)c5)ccc4cn3)ccn2)CC1,IC50,second compound 0.0316 µM,5970 nM
same,IC50,second compound 0.1 µM,3470 nM
same,IC50,second compound 0.316 µM,< 31.6 nM
same,IC50,second compound 1 µM,< 31.6 nM
same,IC50,second compound 3.16 µM,< 31.6 nM
same,IC50,second compound 10 µM,< 31.6 nM
same,"viability, T/C",[1],110%
same,"viability, T/C",[2],101%
same,"viability, T/C",[3],92.9%
same,"viability, T/C",[4],88.7%
same,"viability, T/C","second compound 0.0316 µM, first compound 3.16 µM",63.6%
same,"viability, T/C","second compound 0.0316 µM, first compound 10 µM",37.7%
same,"viability, T/C",[5],84.8%
same,"viability, T/C",[6],81.4%
same,"viability, T/C",[7],84.2%
same,"viability, T/C",[8],69.9%
same,"viability, T/C","second compound 0.1 µM, first compound 3.16 µM",52.2%
same,"viability, T/C","second compound 0.1 µM, first compound 10 µM",31.5%
same,"viability, T/C",[9],4.25%
same,"viability, T/C",[10],4.3%
same,"viability, T/C",[11],5.59%
same,"viability, T/C",[12],3.72%
same,"viability, T/C","second compound 0.316 µM, first compound 3.16 µM",2.53%
same,"viability, T/C","second compound 0.316 µM, first compound 10 µM",1.66%
same,"viability, T/C",[13],0.41%
same,"viability, T/C",[14],0.45%
same,"viability, T/C",[15],2.89%
same,"viability, T/C",[16],0.48%
same,"viability, T/C","second compound 1 µM, first compound 3.16 µM",1.17%
same,"viability, T/C","second compound 1 µM, first compound 10 µM",1.46%
same,"viability, T/C",[17],0.36%
same,"viability, T/C",[18],0.61%
same,"viability, T/C",[19],0.67%
same,"viability, T/C",[20],0.54%
same,"viability, T/C","second compound 3.16 µM, first compound 3.16 µM",2.79%
same,"viability, T/C","second compound 3.16 µM, first compound 10 µM",2.82%
same,"viability, T/C",[21],0.19%
same,"viability, T/C",[22],0.34%
same,"viability, T/C",[23],1.74%
same,"viability, T/C",[24],0.3%
same,"viability, T/C","second compound 10 µM, first compound 3.16 µM",2%
same,"viability, T/C","second compound 10 µM, first compound 10 µM",2.87%
COc1c(OCCCN2CCOCC2)ccc2c3n(c(=NC(=O)c4cnc(N)nc4)nc12)CCN3 + CN1CCN(c2cc(C(=O)Nc3cc4cc(-c5cnn(C)c5)ccc4cn3)ccn2)CC1,IC50,second compound 0.0316 µM,15.8 nM
same,IC50,second compound 0.1 µM,13.3 nM
same,IC50,second compound 0.316 µM,< 3.16 nM
same,IC50,second compound 1 µM,< 3.16 nM
same,IC50,second compound 3.16 µM,< 3.16 nM
same,IC50,second compound 10 µM,< 3.16 nM
same,"viability, T/C","second compound 0.0316 µM, first compound 0.00316 µM",84.8%
same,"viability, T/C","second compound 0.0316 µM, first compound 0.01 µM",61.2%
same,"viability, T/C",[1],33.2%
same,"viability, T/C",[2],14.5%
same,"viability, T/C",[3],7%
same,"viability, T/C",[4],4.1%
same,"viability, T/C","second compound 0.1 µM, first compound 0.00316 µM",65.5%
same,"viability, T/C","second compound 0.1 µM, first compound 0.01 µM",58.2%
same,"viability, T/C",[5],27.1%
same,"viability, T/C",[6],11.5%
same,"viability, T/C",[7],8.48%
same,"viability, T/C",[8],3.16%
same,"viability, T/C","second compound 0.316 µM, first compound 0.00316 µM",5.23%
same,"viability, T/C","second compound 0.316 µM, first compound 0.01 µM",3.99%
same,"viability, T/C",[9],2.13%
same,"viability, T/C",[10],1.22%
same,"viability, T/C",[11],0.53%
same,"viability, T/C",[12],0.56%
same,"viability, T/C","second compound 1 µM, first compound 0.00316 µM",0.41%
same,"viability, T/C","second compound 1 µM, first compound 0.01 µM",0.62%
same,"viability, T/C",[13],1.84%
same,"viability, T/C",[14],0.29%
same,"viability, T/C",[15],0.49%
same,"viability, T/C",[16],1.95%
same,"viability, T/C","second compound 3.16 µM, first compound 0.00316 µM",0.35%
same,"viability, T/C","second compound 3.16 µM, first compound 0.01 µM",1.42%
same,"viability, T/C",[17],0.35%
same,"viability, T/C",[18],0.45%
same,"viability, T/C",[19],1.33%
same,"viability, T/C",[20],0.46%
same,"viability, T/C","second compound 10 µM, first compound 0.00316 µM",0.26%
same,"viability, T/C","second compound 10 µM, first compound 0.01 µM",0.83%
same,"viability, T/C",[21],0.25%
same,"viability, T/C",[22],0.19%
same,"viability, T/C",[23],0.4%
same,"viability, T/C",[24],1.34%

# — PubChem BioAssay AID2060615 (Molecular Pharmacology Branch, DTP, NCI, 2025)
